The compounds below were run against T1, RORc ligand binding domain (Homo sapiens, UniProt P51449) (assay: In Vitro RORc Ligand Binding Assay (25-[3H]hydroxycholesterol radioligand filtration)). Details: In Vitro RORc Ligand Binding Assay; Table 4; read-out: RORc IC50.
T1 construct: host or cells: E. coli
T1 sequence (P51449 269-508 limits assumed): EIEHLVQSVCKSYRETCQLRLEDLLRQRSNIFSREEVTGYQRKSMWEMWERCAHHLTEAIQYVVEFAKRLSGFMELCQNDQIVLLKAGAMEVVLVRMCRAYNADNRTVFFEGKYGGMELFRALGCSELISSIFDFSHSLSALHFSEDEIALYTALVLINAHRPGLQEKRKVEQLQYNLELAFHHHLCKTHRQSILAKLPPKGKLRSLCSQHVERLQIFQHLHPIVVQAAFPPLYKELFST

SMILES | IC50
CC(=O)N1CCN(c2ccc(CN3CCCC(c4ccccc4)S3(=O)=O)c(F)c2)CC1 (single isomer, unassigned) [Example 1] | 247 nM
CC(=O)N1CCN(c2ccc(CN3CCCC(c4ccccc4)S3(=O)=O)c(F)c2)CC1 (single isomer, unassigned) [Example 2] | 157 nM
CS(=O)(=O)N1CCC(Oc2ccc(CN3CCCC(c4ccccc4)S3(=O)=O)c(F)c2)CC1 (single isomer, unassigned) [Example 3] | 86 nM
CS(=O)(=O)N1CCC(Oc2ccc(CN3CCCC(c4ccccc4)S3(=O)=O)c(F)c2)CC1 (single isomer, unassigned) [Example 4] | 37 nM
CC(=O)N1CCN(c2ccc(CN3CCCC(c4ccc(F)cc4)S3(=O)=O)c(F)c2)CC1 (single isomer, unassigned) [Example 11, 1-(4-{3-Fluoro-4-[6-(4-fluoro-phenyl)-1,1-dioxo-[1,2]thiazinan-2-ylmethyl]-phenyl}-piperazin-1-yl)-ethanone] | 125 nM
CC(=O)N1CCN(c2ccc(CN3CCCC(c4ccc(F)cc4)S3(=O)=O)c(F)c2)CC1 (single isomer, unassigned) [Example 12, 1-(4-{3-Fluoro-4-[6-(4-fluoro-phenyl)-1,1-dioxo-[1,2]thiazinan-2-ylmethyl]-phenyl}-piperazin-1-yl)-ethanone] | 241 nM
CC(=O)N1CCN(c2ccc(CN3C(C)(C)CCC(c4ccccc4)S3(=O)=O)c(F)c2)CC1 (single isomer, unassigned) [Example 13, 1-{4-[4-(3,3-Dimethyl-1,1-dioxo-6-phenyl-[1,2]thiazinan-2-ylmethyl)-3-fluoro-phenyl]-piperazin-1-yl}-ethanone] | 142 nM
CC(=O)N1CCN(c2ccc(CN3C(C)(C)CCC(c4ccccc4)S3(=O)=O)c(F)c2)CC1 (single isomer, unassigned) [Example 14, 1-{4-[4-(3,3-Dimethyl-1,1-dioxo-6-phenyl-[1,2]thiazinan-2-ylmethyl)-3-fluoro-phenyl]-piperazin-1-yl}-ethanone] | 1900 nM
CC(=O)N1CCN(c2ccc(CN3CCCCC(c4ccccc4)S3(=O)=O)c(F)c2)CC1 (single isomer, unassigned) [Example 15, 1-{4-[4-(1,1-Dioxo-7-phenyl-[1,2]thiazepan-2-ylmethyl)-3-fluoro-phenyl]-piperazin-1-yl}-ethanone] | 11 nM
CC(=O)N1CCN(c2ccc(CN3CCCCC(c4ccccc4)S3(=O)=O)c(F)c2)CC1 (single isomer, unassigned) [Example 16, 1-{4-[4-(1,1-Dioxo-7-phenyl-[1,2]thiazepan-2-ylmethyl)-3-fluoro-phenyl]-piperazin-1-yl}-ethanone] | 32 nM
CC(=O)N1CCN(c2ccc(CN3[C@@H](C)CCC(c4ccccc4)S3(=O)=O)c(F)c2)CC1 (single isomer, unassigned) [Example 17] | 16 nM
CC(=O)N1CCN(c2ccc(CN3[C@@H](C)CCC(c4ccccc4)S3(=O)=O)c(F)c2)CC1 (single isomer, unassigned) [Example 18] | 47 nM
CC(=O)N1CCN(c2ccc(CN3[C@H](C)CCC(c4ccccc4)S3(=O)=O)c(F)c2)CC1 (single isomer, unassigned) [Example 19] | 2800 nM
CC(=O)N1CCN(c2ccc(CN3[C@H](C)CCC(c4ccccc4)S3(=O)=O)c(F)c2)CC1 (single isomer, unassigned) [Example 20] | 26 nM
CC(=O)N1CCN(c2ccc(CN3CCOCC(c4ccccc4)S3(=O)=O)c(F)c2)CC1 (single isomer, unassigned) [Example 22, 1-{4-[4-(4,4-Dioxo-3-phenyl-[1,4,5]oxathiazepan-5-ylmethyl)-3-fluoro-phenyl]-piperazin-1-yl}-ethanone] | 751 nM
CC(=O)N1CCN(c2ccc(CN3CCOCC(c4ccccc4)S3(=O)=O)c(F)c2)CC1 (single isomer, unassigned) [Example 23, 1-{4-[4-(4,4-Dioxo-3-phenyl-[1,4,5]oxathiazepan-5-ylmethyl)-3-fluoro-phenyl]-piperazin-1-yl}-ethanone] | 45 nM
CC(=O)N1CCN(c2ccc(CN3[C@@H](C)COCC(c4ccccc4)S3(=O)=O)c(F)c2)CC1 (single isomer, unassigned) [Example 24] | 182 nM
CC(=O)N1CCN(c2ccc(CN3[C@@H](C)COCC(c4ccccc4)S3(=O)=O)c(F)c2)CC1 (single isomer, unassigned) [Example 25] | 32 nM
CC(=O)N1CCN(c2ccc(CN3[C@H](C)COCC(c4ccccc4)S3(=O)=O)c(F)c2)CC1 (single isomer, unassigned) [Example 26] | 2000 nM
CC(=O)N1CCN(c2ccc(CN3[C@H](C)COCC(c4ccccc4)S3(=O)=O)c(F)c2)CC1 (single isomer, unassigned) [Example 27] | 188 nM
CC(=O)N1CCN(c2ccc(CN3C[C@H](C)OCC(c4ccccc4)S3(=O)=O)c(F)c2)CC1 (single isomer, unassigned) [Example 28] | 104 nM
CC(=O)N1CCN(c2ccc(CN3C[C@H](C)OCC(c4ccccc4)S3(=O)=O)c(F)c2)CC1 (single isomer, unassigned) [Example 29] | 24 nM
CC(=O)N1CCN(c2ccc(CN3C[C@@H](C)OCC(c4ccccc4)S3(=O)=O)c(F)c2)CC1 (single isomer, unassigned) [Example 30] | 107 nM

SMILES | IC50
CC(=O)N1CCN(c2ccc(CN3C[C@@H](C)OCC(c4ccccc4)S3(=O)=O)c(F)c2)CC1 (single isomer, unassigned) [Example 31] | 717 nM
C[C@H]1CCC(c2ccccc2)S(=O)(=O)N1Cc1ccc(OC2CCN(S(C)(=O)=O)CC2)cc1F (single isomer, unassigned) [Example 32] | 17 nM
C[C@H]1CCC(c2ccccc2)S(=O)(=O)N1Cc1ccc(OC2CCN(S(C)(=O)=O)CC2)cc1F (single isomer, unassigned) [Example 33] | 13 nM
C[C@H]1CCC(c2ccccc2)S(=O)(=O)N1Cc1ccc(OC2CCN(S(C)(=O)=O)CC2)nc1 (single isomer, unassigned) [Example 34] | 686 nM
C[C@H]1CCC(c2ccccc2)S(=O)(=O)N1Cc1ccc(OC2CCN(S(C)(=O)=O)CC2)nc1 (single isomer, unassigned) [Example 35] | 1100 nM
C[C@H]1CCC(c2ccccc2)S(=O)(=O)N1Cc1ccc(OC2CN(S(C)(=O)=O)C2)cc1F (single isomer, unassigned) [Example 36] | 71 nM
C[C@H]1CCC(c2ccccc2)S(=O)(=O)N1Cc1ccc(OC2CN(S(C)(=O)=O)C2)cc1F (single isomer, unassigned) [Example 37] | 194 nM
C[C@H]1CCC(c2ccccc2)S(=O)(=O)N1Cc1ccc(OC2CCS(=O)(=O)CC2)cc1F (single isomer, unassigned) [Example 38] | 135 nM
C[C@H]1CCC(c2ccccc2)S(=O)(=O)N1Cc1ccc(OC2CCS(=O)(=O)CC2)cc1F (single isomer, unassigned) [Example 39] | 119 nM
CC(=O)N1CCN(c2ccc(CN3[C@@H](C)CCC(c4ccccc4)S3(=O)=O)cc2)CC1 (single isomer, unassigned) [Example 40] | 81 nM
CC(=O)N1CCN(c2ccc(CN3[C@@H](C)CCC(c4ccccc4)S3(=O)=O)cc2)CC1 (single isomer, unassigned) [Example 41] | 126 nM
CC(=O)N1CCN(c2ccc(CN3[C@@H](C)CCC(c4ccccc4)S3(=O)=O)cn2)CC1 (single isomer, unassigned) [Example 42] | 837 nM
CC(=O)N1CCN(c2ccc(CN3[C@@H](C)CCC(c4ccccc4)S3(=O)=O)cn2)CC1 (single isomer, unassigned) [Example 43] | 1500 nM
C[C@H]1CCC(c2ccccc2)S(=O)(=O)N1Cc1ccc(OC2CCN(S(C)(=O)=O)CC2)cc1 (single isomer, unassigned) [Example 44] | 14 nM
C[C@H]1CCC(c2ccccc2)S(=O)(=O)N1Cc1ccc(OC2CCN(S(C)(=O)=O)CC2)cc1 (single isomer, unassigned) [Example 45] | 22 nM
CC(=O)N1CCN(c2ccc(CN3[C@H](C)CCC(c4ccccc4)S3(=O)=O)cc2)CC1 (single isomer, unassigned) [Example 47] | 299 nM
CC(=O)N1CCN(c2ccc(CN3[C@H](C)CCC(c4ccccc4)S3(=O)=O)cn2)CC1 (single isomer, unassigned) [Example 48] | 1500 nM
CC(=O)N1CCN(c2ccc(CN3[C@H](C)CCC(c4ccccc4)S3(=O)=O)cn2)CC1 (single isomer, unassigned) [Example 49] | 5500 nM
C[C@@H]1CCC(c2ccccc2)S(=O)(=O)N1Cc1ccc(OC2CCN(S(C)(=O)=O)CC2)nc1 (single isomer, unassigned) [Example 50] | 168 nM
C[C@@H]1CCC(c2ccccc2)S(=O)(=O)N1Cc1ccc(OC2CCN(S(C)(=O)=O)CC2)nc1 (single isomer, unassigned) [Example 51] | 1400 nM
CS(=O)(=O)N1CCC(Oc2ccc(CN3CCCC(c4ccccc4)S3(=O)=O)c(F)c2)CC1 (single isomer, unassigned) [Example 54, 2-(2-fluoro-4-((1-(methylsulfonyl)piperidin-4-yl)oxy)benzyl)-6-phenyl-1,2-thiazinane 1,1-dioxide] | 37 nM
CS(=O)(=O)N1CCC(Oc2ccc(CN3CCCC(c4ccccc4)S3(=O)=O)c(F)c2)CC1 (single isomer, unassigned) [Example 55, 2-(2-fluoro-4-((1-(methylsulfonyl)piperidin-4-yl)oxy)benzyl)-6-phenyl-1,2-thiazinane 1,1-dioxide] | 86 nM

Same assay, conditions: read-out: RORc IC50

SMILES | IC50
C[C@H]1CCC(c2ccccc2)S(=O)(=O)N1Cc1ccc(N2CCn3c(cnc3C#N)C2)cc1F (some centres unmarked) | 182 nM
C[C@H]1CCC(c2ccccc2)S(=O)(=O)N1Cc1ccc(N2CCC(N3CCCC3=O)CC2)cc1F (some centres unmarked) | 878 nM

Reference: patent publication US9115101B2 (Genentech, Inc., priority 2012, dated 2015)
